The values below come from patent publication US9547017B2, “Genetically encoded fluorescent sensors for detecting intracellular signalling through diacylglycerol pathways” (MONTANA MOLECULAR LLC, priority 2012, dated 2017).

Entries after “also recorded” stand apart in the source; their conditions may differ.

The subject of assay [1] is DAG. Briefly: DAG sensor fluorescence change on carbachol stimulation of co-expressed M1 receptor in HEK 293 cells (time-lapse imaging). The class given is cell-based, human. An excerpt:
These changes were easily detected in time-lapse imaging and occurred in all transfected cells with remarkably little cell to cell variability. […] The signals then returned to baseline quite slowly (t-170 seconds, FIG. 3C).

The target of assay [2] is T1, P2Y11 receptor (Homo sapiens, UniProt Q96G91).
T1 sequence (Q96G91 1-374): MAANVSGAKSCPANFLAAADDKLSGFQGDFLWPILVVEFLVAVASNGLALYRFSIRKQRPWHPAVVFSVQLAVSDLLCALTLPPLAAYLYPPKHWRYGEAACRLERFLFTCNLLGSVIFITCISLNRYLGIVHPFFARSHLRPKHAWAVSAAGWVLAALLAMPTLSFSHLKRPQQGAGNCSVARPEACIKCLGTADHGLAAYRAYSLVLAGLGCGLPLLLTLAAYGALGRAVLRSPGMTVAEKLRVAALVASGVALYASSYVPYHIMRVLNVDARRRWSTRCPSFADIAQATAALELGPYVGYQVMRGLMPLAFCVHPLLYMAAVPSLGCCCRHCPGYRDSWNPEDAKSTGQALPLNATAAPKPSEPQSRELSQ
The note with it: reported in reference (29), different cell line; cited from earlier work.

In assay [3] the target is T1, P2Y11 receptor. Kind of assay: Multiplex DAG2 and R-GECO1 sensors with P2Y11 receptor in HEK 293 cells. The class given is cell-based. The arrangement: expressed in transfected cells; host or cells: HEK 293. The settings on record: HEK cells expressing human P2Y11 receptor. The source says:
To explore whether multiplex sensors could be used to detect this distinct signaling pattern, we expressed the human P2Y11 receptor with combinations of the Downward DAG2, or Upward DAG2, and R-GECO1 sensors. […] (FIG. 8).

In assay [4] the test system is DAG sensors. Kind of assay: Direct activation of DAG sensors in cells by phorbol ester PDBu. The class given is cell-based. An excerpt:
In transient expression it is possible to produce high concentrations of the protein-based sensor than the analyte itself [Falkenburger et al].
(§1) To test for the independence of the signals being detected by these sensors, we increased intracellular Ca2+ by applying ionomycin.

Assay [5] has as its system DAG sensors. Kind of assay: Effect of DMSO on the DAG assay. The class given is cell-based. As for the experimental part:
Many compound libraries are carried by DMSO, a vehicle that can cause artifacts in live cell assays. […] At moderate final concentrations of 0.1 to 1%, the DMSO produced no effect, while at higher concentrations artifactual, DMSO triggered changes in fluorescence did occur. The effect of DMSO on the DAG sensors was negligible at final concentrations of 0.1 to 1%, but detectable at 2% or greater.

Assay [6] concerns PIP2 and DAG. Kind of assay: Co-expressed PIP2r and DAG sensors, M1 receptor activation (PLC substrate and product). The class given is cell-based. The note with it: PIP2r co-expressed with DAG sensor, FIG. 7A. The source says: Stimulation of phospholipase C cleaves PIP2 and produces DAG. Co-expression of the Upward DAG2 or Downward DAG2 sensor with the PIP2r sensor provides a new view of both the substrate and product of phopholipase C (FIG. 7). To our knowledge, this is the first time that genetically encoded biosensors have been used to simultaneously measure substrate and product. M1 receptor activation produced a remarkable change in the intensity and distribution of both sensors. […] The onset of the response of the Upward and Downward DAG2 sensors, as well as PIP2r, is kinetically quite similar. However the return to baseline is considerably slower for the Downward DAG2 and PIP2r sensors (FIG. 7B).

For assay [7], the system named is intracellular Ca2+. Briefly: Independence test: ionomycin raises intracellular Ca2+ in cells expressing Ca2+, DAG or PIP2 sensors. The class given is cell-based.
Source text: as §1

Assay [8] relates to PIP2. Kind of assay: PIP2 sensor response to M1 receptor activation. The class given is cell-based. The note with it: FIGS. 6A and B. An excerpt: Phospholipase C hydrolyses PIP2 to produce both DAG and IP3. To independently check the fidelity and kinetics of the DAG sensors, we created a red fluorescent PIP2 sensor by fusing the pleckstrin homology (PH) domain of PLCδ to two different components of the recently described dimerization-dependent red fluorescent proteins (26). Previous work has shown that the translocation of the PLCδ PH domain can be used to measure PIP2 turnover (27), and if the PH domains carry FRET pairs of fluorescent proteins a small change in FRET occurs when PLC is activated (28). […] Because this sensor relies on the fluorescence of one protein, rather than a FRET pair, it could be multiplexed with the green fluorescent DAG sensors for simultaneous measurement of both PIP2 and DAG in living cells. The amino acid sequences of this pair of constructs forming a novel PIP2 sensor are shown as SEQ ID NO:70 and SEQ ID NO:71, and the nucleotide sequences encoding them are shown as SEQ ID NO:72 and SEQ ID NO:73.

Setting [9] is: carbachol stimulation of the M1 receptor.

“Downward DAG: DAG sensor: cpEGFP at K152 of PKC delta truncated at L122; fluorescence decreases upon binding to DAG”: in assay [1] (setting [9]), the “loss (decrease) in fluorescence” value stood at 40%. Besides, in assay [1] (mean of 4 cells), the “time over which the fluorescence loss occurs” value was 15 s.
Consider `Nc1ncnc2c1ncn2[C@@H]1O[C@H](COP(=O)(O)OP(=O)(O)OP(=O)(O)O)[C@@H](O)[C@H]1O` [ATP], for which the “signaling at the P2Y11 receptor as reported” value in assay [2] was “produces inositol phosphate turnover and transient Ca2+ signaling”. In assay [3], the “Ca2+ response (R-GECO1)” value is on record as “triggered a Ca2+ response; also recorded: transient increase in Ca2+” and the “PLC pathway signaling (Upward or Downward DAG2 sensors)” value is listed as “triggers signaling via the phospholipase C pathway; also recorded: activating the PLC pathway”.
As for `CCCC(=O)O[C@@H]1[C@@H](C)[C@@]2(O)[C@@H](C=C(CO)C[C@]3(O)C(=O)C(C)=C[C@@H]23)[C@@H]2C(C)(C)[C@]12OC(=O)CCC` [PDBu], the “additional change in sensor fluorescence on PDBu applied after carbachol” value in assay [4] (cells first stimulated with carbachol, then PDBu) is “additional increase in fluorescence; also recorded: additional doubling of the change in intensity”. The “activation of DAG sensor by PDBu added after ionomycin” value in assay [4] (subsequent addition after ionomycin, FIG. 4C) is given as “activates Downward DAG; also recorded: subsequently activated”.
With `C[S+](C)[O-]` [DMSO], the “effect of DMSO on the DAG sensors” value in assay [5] (2% or greater) is recorded as “detectable”; in assay [5] (final concentrations of 0.1 to 1%), “negligible; also recorded: no effect”.
“Upward DAG: DAG sensor: cpEGFP at N158 of PKC delta truncated at L122; fluorescence increases upon binding to DAG” showed a fluorescence increase in assay [1] (setting [9]) of 45%. For the same molecule, the “change in sensor fluorescence on M1 receptor activation” value in assay [6] is “green fluorescence increases”.
Turning to `O=c1ccn([C@@H]2O[C@H](COP(=O)(O)OP(=O)(O)OP(=O)(O)O)[C@@H](O)[C@H]2O)c(=O)[nH]1` [UTP], in assay [2], the “signaling at the P2Y11 receptor as reported” value is recorded as “only triggers a Ca2+ response”. Also, in assay [3], the “Ca2+ response (R-GECO1)” value is recorded as “triggered a Ca2+ response; also recorded: transient increase in Ca2+” and the “PLC pathway signaling (Upward or Downward DAG2 sensors)” value was “causing a Ca2+ transient in a very different way; also recorded: producing a Ca2+ transient through a different pathway”.
As for `C[C@H](CCC(=O)O)C[C@H](C)C[C@H](C)C(=O)/C=C(\O)[C@H](C)C[C@H](C)C/C=C/[C@@H](C)[C@@H](O)[C@@H](C)[C@@H](O)C[C@@H]1CC[C@@](C)([C@H]2CC[C@@](C)([C@@H](C)O)O2)O1` [ionomycin], the “effect of raising intracellular Ca2+ on DAG and PIP2 levels” value in assay [7] (ionomycin added before PdBU or M1 receptor activation, FIGS. 6C and D) was “no apparent effect on the DAG and PIP2 levels”. Further, in assay [7] (ionomycin applied, FIG. 4C), the “R-GECO (Ca2+ sensor) response” value is recorded as “produces a change in R-GECO; also recorded: robust R-GECO1 response” and the “change in DAG sensor” value is recorded as “not Downward DAG; also recorded: no detectable change in the DAG sensor”.

B1: PIP2 sensor: red fluorescent PIP2 sensor: PH domain of PLCδ fused to each member of the ddRFP pair (protein)
chain 1: MVSKSEEVIKEFMRFKVRLEGSMNGHEFEIEGEGEGRPYEGTQTAKLKVTKGGPLPFAWDILSPQIMYGSKAYVKHPADVPDYMKLSFPEGFKWERVMHFEDGGLVTVTQDTSLQDGTLIYKVKMRGTNFPPDGPVMQKKTLGWDYATERLYPEDGVLKGELLGRLKLKDGGLNLVEFKTIYMAKKPVQLPGYYFVDTKLGITSHNEDYTIVEQYERSEGRHHLGMDELYKRSRAQASNSAVDGTAGPGSMDSGRDFLTLHGLQDDEDLQALLKGSQLLKVKSSSWRRERFYKLQEDCKTIWQESRKVMRTPESQLFSIEDIQEVRMGHRTEGLEKFARDVPEDRCFSIVFKDQRNTLDLIAPSPADAQHWVLGLHKIIHHSGSMDQRQKLQHWIHSCLRKADKNKDNKMSFKELQNFLKELNIQ
chain 2: MVSKGEETIKEFMRFKVRMEGSMNGHEFEIEGEGEGRPYEGTQTAKLKVTKGGPLPFAWDILSPQFMYGSEAYVRHPADIPDYKKLPFPEGFKWERVMNFEDGGLVTVTQDSSLQDGTLICKVKMRGTNFPPDGPVMQKKTMGWEASTEMLYPEDGVLKGHSYQALKLKDGGHYLVEFETIYMAKKPVQLPGDYCVDTKLDITSHNEDYTIVEQYGRSEGRHRLGMDERYKRSRAQASNSAVDGTAGPGSMDSGRDFLTLHGLQDDEDLQALLKGSQLLKVKSSSWRRERFYKLQEDCKTIWQESRKVMRTPESQLFSIEDIQEVRMGHRTEGLEKFARDVPEDRCFSIVFKDQRNTLDLIAPSPADAQHWVLGLHKIIHHSGSMDQRQKLQHWIHSCLRKADKNKDNKMSFKELQNFLKELNIQ
modifications: Synthetic sequence, a.a. sequence of PIP2 sensor fragment [PIP2-A1]; Synthetic sequence, a.a. sequence of PIP2 sensor fragment [PIP2-B1]
notes: red fluorescent PIP2 sensor: PH domain of PLCδ fused to each member of the ddRFP pair
For the molecule B1, the “change in sensor fluorescence on M1 receptor activation” value in assay [6] is “red fluorescence decreases”. Moreover, the “red fluorescent signal at the membrane with M1 receptor activation” value in assay [8] was “rapidly disappeared”.
